This is an account of results in patent US11759530B2, “TKI permeability enhancers” (City of Hope, priority 2014, dated 2023).

Structures are written as SMILES. “Also recorded” adds a separate entry of the source.

One data set relates to CK1 (S. pombe). Conditions: cited from earlier work.
The subject of data set [1] is HCT-116 EGFP-miR21 tumor microspheroids. The data set is described as follows: Oligo penetration into tumor microspheroids, confocal microscopy. In kind it is cell-based, human. As for the experimental part:
HCT-116 cells were transfected with a plasmid that expresses EGFP under the control of mir-21. When the cells express endogenous mir-21, the expression of EGFP is silenced. These cells were grown into tumor microspheroids, which were treated with an anti-mir21 mix mer oligonucleotide under gymnotic conditions (i.e., no carriers, no conjugations). When the anti-mir21 mix mer (product of Santaris Pharma, Horsholm, Denmark) enters the cells, it prevents the binding of the endogenous mir21 to its complementary sites on the 3′UTR of the EGFP gene. EGFP is then expressed and the cells glow green. Applicants discovered, by confocal microscopy, that the penetration of the anti-mir21 into the tumor microspheroid was only approximately 3 cells deep. Applicants verified this by treating the microspheroids with a Cy5-labeled anti-Bcl-2 phosphorothioate LNA gapmer. Here again, the penetration was only about 3 cell layers deep. Applicants then wanted to increase the oligo penetration and increase the amount of EGFP produced per cell. Applicants then began to screen a library of tyrosine kinase inhibitors (TKIs). These were added (100 nm-1 uM) to the media in addition to the oligo. Applicants examined 4 TKIs: Sorafenib was ineffective. […] This work has tremendous practical utility as it provides a way of screening for active oligos in a non-animal model, and provides a way to improve oligo penetration in tumors.
The HCT-116 EGFP-miR21 stable, clonal cell line was used to create the microspheroids in 96-well hanging-drop plates (Perfecta 3D, Biometrix Inc., Ann Arbor, Mich.). Following trypsinization, the cells were lifted and re-suspended at a density of 3×10^5 cells in 300 μL DMEM (Irvine Scientific, Santa Ana, Calif., USA) supplemented with 10% fetal calf serum (Irvine Scientific), 1 mM L-glutamine, 5% non-essential amino acids. To improve the 3D structure of the spheroids, 2.5% Matrigel™ can be added to the cell seeding solution. […]
All microspheroids were incubated for additional 5 days and analyzed with a Zeiss confocal microscope. […]

The next data set has as its system LNCaP cells. The data set is described as follows: MTS cytotoxicity assay of TKI plus AR-ASO. In kind it is cell-based. Conditions: 3 days, 1 uM TKI or 1 uM AR-ASO with titration of the paired drug. How it is done: (§1) FIG. 10: TKI synergizes AR-ASO against AR expression and the AR signal pathway. […] MTS assay of LNCaP treated for 3 days with 1 uM TKI or 1 uM AR-ASO (AR-ASO-1) in the presence of the titrations of the paired drug.
Background: Tetrazolium dyes change colour on reduction, which living cells bring about.

In data set [2] the test system is androgen receptor (AR full length and AR variant 7) in LNCaP, LAPC-4, 22RV1 cells. The data set is described as follows: Androgen receptor expression in prostate cancer cell lines. In kind it is cell-based. As for the experimental part: Panels A-C, Prostate cancer cell lines LNCaP (A), LAPC-4 (B), and 22RV1 (C) were treated with inhibitor at indicated concentrations for indicated incubation times. FL, AR full length; V7, AR variant 7.
as §1
Similar results have been obtained with Bcl-2.

Data set [3] deals with HCT116-GFPmiR21 cells. The data set is described as follows: Drug screen: EGFP reactivation by anti-miR21 oligo plus compound (ASO uptake and function). The data set is classed as cell-based, human. As to conditions: for TKI effect on oligo penetration and EGFP produced per cell: TKI 100 nm-1 uM added to the media in addition to the oligo; for ASO uptake (eGFP activation), FIG. 3: anti-mir21 + drug.

Data set [4] deals with IL-1 production in human monocytes. As to conditions: read-out: IC50 for inhibiting IL-1 production in human monocytes; cited from earlier work.
The test system of the next data set is mink lung cells. Conditions: read-out: IC50 for transcription activation in mink lung cells; cited from earlier work.
For data set [5], the system named is NIH 3T3 mouse fibroblasts. Conditions: read-out: IC50 for TGF-b-dependent cellular growth in NIH 3T3 mouse fibroblasts; cited from earlier work.
The next data set has as its system IP3-K. As to conditions: cited from earlier work.
A further data set relates to PI3-Kα and δ. Conditions: read-out: IC50 for PI3-Kα and δ; unit given as mM; cited from earlier work.
The test system of data set [6] is HCT116-GFPmiR21 cells. The data set is described as follows: ASO intracellular release: anti-miR21 pretreatment, wash, then compound. As to conditions: then drug. The data set is classed as cell-based, human. As for the experimental part:
A robotic screening of a library of tyrosine kinase inhibitors (TKIs) was performed. […] These compounds are under investigation with the aim of determining the mechanism and the lowest concentration required for maximal enhancement of ASO function. For the 14 compounds identified as active in the initial screen, EGFP reactivation was monitored every day for up to 6 days. To determine if any compound affected ASO intracellular release, cells were first treated with 1 μM anti-miR21 PS-mixmer. The next day the media was removed and cells were washed twice with PBS. After adding fresh media the cell were treated with 1 μM of each active compound. Since ASO uptake had already occurred, any enhancement of EGFP expression in active compound-treated cells would be an indication of improved ASO intracellular release.

Broadly, the IC50 is the concentration that inhibits the measured activity by half. In the case of `NC(=O)c1ccc(-c2nc(-c3ccc4c(c3)OCCO4)c(-c3ccccn3)[nH]2)cc1`, in the data set with CK1 (S. pombe), the IC50 was […].

With `COc1cccc2c1C(=O)c1c(O)c3c(c(O)c1C2=O)C[C@@](O)(C(=O)CO)C[C@@H]3O[C@H]1C[C@H](N)[C@H](O)[C@H](C)O1` [Doxorubicin], the “Penetration into tumor spheroids (confocal Z-stacks)” value in data set [1] (FIG. 4-6) is “more uniform penetration”. With `O=C1Nc2cc(Br)ccc2/C1=C1/Nc2ccccc2/C1=N/O` [Compound 6-BIO], in the data set on LNCaP cells, the “Cytotoxicity of the combination of TKI and AR-ASO (MTS assay)” value is on record as “did not show increased cytoxicity”. Moreover, in data set [2] (LNCaP, LAPC-4, 22RV1, AR full length and AR-V7), the Androgen receptor downregulation entry is recorded as “can downregulate both forms; also recorded: downregulates”. Besides, the “Synergy with AR antisense oligo against AR expression and AR signal pathway” value in data set [2] (combined with AR-ASO, LNCaP and LAPC-4, 2 days) is on record as “synergistic; also recorded: synergizes”. Take `Cc1cn(-c2cc(NC(=O)c3ccc(C)c(Nc4nccc(-c5cccnc5)n4)c3)cc(C(F)(F)F)c2)cn1` [nilotinib, 4-methyl-N-[3-(4-methyl-1H-imidazol-1-yl)-5-(trifluoromethyl)phenyl]-3-[(4-pyridin-3-ylpyrimidin-2-yl)amino]benzamide]: the “TKI effect on oligo penetration and EGFP produced per cell” value with HCT116-GFPmiR21 cells [3] is recorded as “shown to have activity”. `CS(=O)(=O)c1ccc(-c2nc(-c3ccc(F)cc3)c(-c3ccncc3)[nH]2)cc1`: the IC50 in data set [4] is 200 nM. For the compound `c1ccc(-c2n[nH]cc2-c2ccnc3ccccc23)nc1`, the concentration for half-maximal inhibition (IC50) in the data set on mink lung cells was 47 nM; in [5], 89 nM. For `O=[N+]([O-])c1ccc(CNc2nc(NCc3cccc(C(F)(F)F)c3)nc3[nH]cnc23)cc1`, the half-maximal inhibitory concentration (IC50) in the data set with IP3-K was 10200 nM. Take `O=C1NC(=O)/C(=C/c2ccc3c(c2)OC(F)(F)O3)S1`: the IC50 with PI3-Kα and δ was > 0.02 mM. On to `CNC(=O)c1cc(Oc2ccc(NC(=O)Nc3ccc(Cl)c(C(F)(F)F)c3)cc2)ccn1` [Sorafenib], for which, in the data set on HCT116-GFPmiR21 cells [3], the “TKI effect on oligo penetration and EGFP produced per cell” value is recorded as “ineffective”; the “ASO uptake (eGFP activation), FIG. 3” value was “Decreased uptake”. Take `Cc1ccc(NC(=O)c2ccc(CN3CCN(C)CC3)cc2)cc1Nc1nccc(-c2cccnc2)n1` [imatinib, 4-[(4-methylpiperazin-1-yl)methyl]-N-(4-methyl-3-{[4-(pyridin-3-yl)pyrimidin-2-yl]amino}phenyl)benzamide]: the “ASO release (eGFP activation), FIG. 3” value with HCT116-GFPmiR21 cells [6] is “increased release”. Besides, the “ASO uptake (eGFP activation), FIG. 3” value with HCT116-GFPmiR21 cells [3] is “Increased uptake”. In addition, the “EGFP expression in tissue culture” value in the data set with HCT116-GFPmiR21 cells [3] (with anti-mir21 oligo, TKI 100 nm-1 uM) was “dramatically increased”. Further, the “Penetration of the anti-mir21 oligo in tumor microspheroids” value in data set [1] (TKI 100 nm-1 uM with oligo) is recorded as “increased penetration”. For the same compound, the “Penetration of the Cy5-labeled anti-Bcl-2 oligo in tumor microspheroids” value in data set [1] (TKI with oligo) is on record as “increased penetration was also seen”.
